Structures are written as SMILES. Read-outs that look alike come from different tables or passages of the source.

The record followed here is patent US11897880B2, “7,8-dihydrobenzo[e]pyrido[3,4-c]azocine-2,5(3H,6H)-dione derivatives useful as a factor XIa inhibitors” (Janssen Pharmaceutica NV, priority 2021, dated 2024).

One test addresses Factor XIa (Homo sapiens, UniProt P03951). Description: Factor XIa inhibition assay utilizing a fluorophore-quencher pair peptide substrate (FLINT). It counts as biochemical. Particulars: for IC50: read-out: FXIa IC50; for Ki: read-out: FXIa Ki. An excerpt: Biological Example 1: Factor XIa Inhibition Assay Utilizing a Fluorophore-Quencher Pair Peptide Substrate
A fluorescence intensity (FLINT) based assay was used to monitor inhibition of Factor XIa. The peptide substrate, 5Fam-KLTRAETV-K5Tamra (purchased from New England Peptide) was chosen based on the FXI sequence. Conversion of zymogen FXI to its activated form, FXIa, occurs by proteolytic cleavage by […] at two sites, Arg146 and Arg180. The custom peptide used in this assay was based on the Arg146 cleavage site of FXI. The peptide substrate was designed with a fluorophore-quencher pair, where the fluorescence is quenched until FXIa cleaves the 8-mer peptide after the Arg residue.
The Factor XIa FLINT assay was used with the following 5Fam-KLTRAETV-K5Tamra assay buffer: 50 mM Tris, pH 7.5, 100 mM NaCl, 5 mM CaCl2), 0.1 mg/mL BSA, 0.03% CHAPS. Assay buffer was prepared by mixing all ingredients fresh. 5Fam-KLTRAETV-K5Tamra peptide substrate was first prepared at 10 mM in 100% DMSO, then diluted to 3 mM in 100% DMSO. Assay buffer was then added directly to the 3 mM stock of substrate to prepare the 30 μM 2× working concentration (15 μM final concentration). The 2× Factor XIa stock solution was prepared by diluting 6.562 μM stock in 1× assay buffer for a […].
Test compound(s) were run in an 11-point, 3-fold serial dilution with a final top compound concentration of 100 nM. Final DMSO in assay was 2%. FXIa was preincubated with compound for 30-minutes and then substrate was added to initiate the reaction. The assay was run with kinetic (KIN) reads at 5 min intervals over 30 minutes. The time course was linear using […] FXIa greater than 30 minutes. More specifically, the assay was run as follows: • 100 nL of 0.01 mM test compound was dispensed into black 384-well non-binding Greiner BioOne 784900 plate for 0.1 μM final concentration; • 5 μL of 1× assay buffer was dispensed to column 24 (low control) and 5 μL 2× Factor XIa solution was dispensed to columns 1-23 (column 23 high control); • the plate was centrifuged with a “cover” plate at 500 rpm for 1 min • the plate was pre-incubated for 30 minutes at room temperature with plate covered; • 5 μL of 2×5Fam-KLTRAETV-K5Tamra peptide substrate was dispensed into the entire plate, columns 1-24; • the plate was centrifuged with a “cover” plate at 500 rpm for 1 min; • the plate was read monitoring fluorescence intensity on the BMG PHERAStar at room temperature, using fluorescence module 485 nm/520 nm.
Percent inhibition (IC50) curves were generated per compound tested, and data was analyzed using a 4-parameter logistic fit using GeneData Screener. The relative fluorescence unit (RFU) values were normalized to percent inhibition using the following equation: % inhibition=((HC−LC)−(compound−LC)/(HC−LC))*100
where LC−low control=mean signal of no Factor XIa or 100% inhibition of Factor XIa; HC−high control=mean signal of Factor XIa+5Fam-KLTRAETV-K5Tamra peptide substrate with DMSO only.
An 11-point dose response curve for the test compound(s) was generated using GENDATA to determine IC50 value based on the following equation: Y=Bottom+(Top−Bottom)/(1+10^((log IC50−X)*HillSlope))
where Y is the % inhibition in the presence of X inhibitor concentration, Top=high control=mean signal of Factor XIa+5Fam-KLTRAETV-K5Tamra peptide substrate with DMSO only; Bottom=low control−mean signal of no Factor XIa or 100% inhibition of Factor XIa; HillSlope−Hill coefficient; and IC50=concentration of compound with 50% inhibition in relation to top/high control.
(§1) Representative compounds of formula (I) of the present invention were tested according to the procedure described in Biological Example 1 and Biological Example 2 above, with results as listed in Table 3, below.

The next test addresses human plasma kallikrein (Homo sapiens, UniProt P03952). Description: Kallikrein inhibition assay utilizing a quenched AMC peptide substrate (FLINT). The class given is biochemical. Particulars: 30 min preincubation, 50 μM Z-Gly-Pro-Arg-AMC, 2 nM kallikrein.
Description: Biological Example 2: Kallikrein Inhibition Assay Utilizing a Quenched AMC Peptide Substrate
A fluorescence intensity (FLINT) based assay was used to monitor inhibition of human plasma kallikrein. The peptide substrate, Z-Gly-Pro-Arg-AMC (Purchased from Bachem; Catalog #1-1150) was chosen based on its relatively low KM for kallikrein which enables running the assay at lower substrate concentrations to control background fluorescence.
The Kallikrein FLINT assay was used with the following Z-Gly-Pro-Arg-AMC assay buffer: 50 mM Tris, pH 7.5, 100 mM NaCl, 5 mM CaCl2), 0.1 mg/mL BSA, 0.03% CHAPS. Assay buffer was prepared by mixing all ingredients fresh. 2× Z-Gly-Pro-Arg-AMC peptide substrate was prepared by diluting 10 mM stock into 1× assay buffer for a 100 μM working concentration (50 μM final concentration). The 2× kallikrein stock solution was prepared by diluting 14.76 μM stock in 1× assay buffer for a 4 nM working stock solution (2 nM final concentration).
Test compound(s) were run in an 11-point, 3-fold serial dilution with a final top compound concentration of 1 μM. Final DMSO in assay was 2%. Plasma kallikrein was pre-incubated for 30-minute with compound and then 50 μM substrate was added to initiate the reaction. The assay was run with kinetic (KIN) reads at 5 min intervals over 30 minutes. The time course was linear using 2 nM kallikrein greater than 30 minutes. More specifically, the assay was run as follows: • 100 nL of 0.1 mM test compound was dispensed into black 384-well non-binding Greiner BioOne 784900 plate for 1 μM final concentration; • 5 μL of 1× assay buffer was dispensed to columns 24 (low control) and 5 μL 2× human kallikrein enzyme solution was dispensed to columns 1-23 (column 23 high control); • the plate was centrifuged with a “cover” plate at 500 rpm for 1 min • the plate was pre-incubated for 30 minutes at room temperature with plate covered; • 5 μL of 2× Z-Gly-Pro-Arg-AMC peptide substrate was dispensed into the entire plate, columns 1-24; • the plate was centrifuged with a “cover” plate at 500 rpm for 1 min; the plate was read monitoring fluorescence intensity on the BMG PHERAStar at room temperature, using fluorescence module 340 nm/440 nm.
Percent inhibition (IC50) curves were generated per compound tested, and data was analyzed using a 4-parameter logistic fit using GeneData Screener. The relative fluorescence unit (RFU) values were normalized to percent inhibition using the following equation: % inhibition=((HC−LC)−(compound−LC)/(HC−LC))*100 where LC—low control=mean signal of human kallikrein enzyme or 100% inhibition of human kallikrein enzyme; HC—high control=mean signal of […]+Z-Gly-Pro-Arg-AMC peptide substrate with DMSO only.
An 11-point dose response curve for the test compound(s) was generated using GENDATA to determine IC50 value based on the following equation: Y=Bottom+(Top−Bottom)/(1+10^((log IC50−X)*HillSlope)) • where Y is the % inhibition in the presence of X inhibitor concentration, Top=high control=mean signal of human kallikrein enzyme+Z-Gly-Pro-Arg-AMC peptide substrate with DMSO only; Bottom=low control−mean signal of no human kallikrein enzyme or 100% inhibition of human kallikrein enzyme; HillSlope—Hill coefficient; and IC50=concentration of compound with 50% inhibition in relation to top/high control.
as §1

The mark [1] stands for this setting: cells that print μM themselves in the nM column, same assay conditions.
Where [2] appears, read: 30 min preincubation, 5Fam-KLTRAETV-K5Tamra substrate 15 μM final, kinetic reads.
Setting [3] is: cells that print μM themselves in the nM column.

Chain of Factor XIa (P03951 388-625 limits assumed): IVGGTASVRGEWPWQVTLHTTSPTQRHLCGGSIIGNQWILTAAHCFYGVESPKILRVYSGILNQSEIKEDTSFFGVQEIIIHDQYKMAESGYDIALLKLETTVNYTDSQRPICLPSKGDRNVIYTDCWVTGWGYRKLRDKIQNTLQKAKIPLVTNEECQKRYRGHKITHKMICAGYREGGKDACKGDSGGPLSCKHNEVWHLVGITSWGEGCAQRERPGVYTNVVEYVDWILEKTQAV
Chain of Factor XIa (P03951 19-387 partner limits assumed): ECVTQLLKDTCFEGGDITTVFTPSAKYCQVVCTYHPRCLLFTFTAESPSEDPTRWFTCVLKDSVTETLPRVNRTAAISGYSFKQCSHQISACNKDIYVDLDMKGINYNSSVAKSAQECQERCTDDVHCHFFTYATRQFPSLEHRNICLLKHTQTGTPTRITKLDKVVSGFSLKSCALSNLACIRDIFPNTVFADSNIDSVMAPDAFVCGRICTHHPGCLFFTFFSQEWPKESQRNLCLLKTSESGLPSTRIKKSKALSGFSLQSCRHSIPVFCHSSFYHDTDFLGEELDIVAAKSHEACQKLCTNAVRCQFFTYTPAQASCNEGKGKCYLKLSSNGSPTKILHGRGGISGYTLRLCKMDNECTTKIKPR
Chain of human plasma kallikrein (P03952 391-638 limits assumed): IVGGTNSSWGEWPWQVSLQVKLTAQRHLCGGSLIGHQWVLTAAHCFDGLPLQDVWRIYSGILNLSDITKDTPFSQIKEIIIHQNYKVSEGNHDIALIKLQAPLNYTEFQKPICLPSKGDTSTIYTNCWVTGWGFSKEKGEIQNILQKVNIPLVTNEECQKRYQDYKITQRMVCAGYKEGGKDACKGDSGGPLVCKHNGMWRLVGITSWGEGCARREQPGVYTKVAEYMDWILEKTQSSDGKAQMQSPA
Chain of human plasma kallikrein (P03952 20-390 partner limits assumed): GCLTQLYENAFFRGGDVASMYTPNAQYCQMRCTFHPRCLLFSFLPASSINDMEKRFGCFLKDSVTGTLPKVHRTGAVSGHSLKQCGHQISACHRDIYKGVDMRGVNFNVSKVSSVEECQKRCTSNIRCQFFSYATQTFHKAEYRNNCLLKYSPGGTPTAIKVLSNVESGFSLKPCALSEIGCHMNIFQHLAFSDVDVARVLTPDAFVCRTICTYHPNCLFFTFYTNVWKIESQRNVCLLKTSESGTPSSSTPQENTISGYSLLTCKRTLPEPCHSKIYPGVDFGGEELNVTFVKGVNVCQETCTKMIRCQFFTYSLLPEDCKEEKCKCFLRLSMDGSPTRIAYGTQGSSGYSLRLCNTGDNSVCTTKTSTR

The IC50 is the midpoint of a concentration-inhibition curve. A word on the Ki: it is a measure of affinity in units of concentration, obtained from inhibition or displacement. With `CC1(C)Cc2ccc(Cl)c(F)c2-c2cc(=O)n3c(c2C(=O)N1)CC[C@@H]3c1ncc(-c2ccc(N)nc2F)[nH]1` (single isomer, unassigned) [Compound 21, (R*)-12-(5-(6-amino-2-fluoropyridin-3-yl)-1H-imidazol-2-yl)-7-chloro-8-fluoro-3,3-dimethyl-3,4,13,14-tetrahydrobenzo[5,6]azocino[4,3-g]indolizine-1,10(2H,12H)-dione], the half-maximal inhibitory concentration (IC50) on Factor XIa (setting [1]) is 1.2 µM; on human plasma kallikrein, more than 10000 nM. The Ki at Factor XIa was found to be 0.598 µM.
Take `CC1(C)Cc2ccc(Cl)c(F)c2-c2cc(=O)n3c(c2C(=O)N1)CC[C@@H]3c1ncc(-c2ccc(N)nc2F)[nH]1` (single isomer, unassigned) [Compound 28, (R*)-12-(5-(6-amino-2-fluoropyridin-3-yl)-1H-imidazol-2-yl)-7-chloro-8-fluoro-3,3-dimethyl-3,4,13,14-tetrahydrobenzo[5,6]azocino[4,3-g]indolizine-1,10(2H,12H)-dione]: the figures for the IC50 at Factor XIa (setting [2]) and at human plasma kallikrein were approximately 0.783 µM and more than 10000 nM, respectively. The inhibition constant (Ki) on Factor XIa is approximately 0.392 µM.
Taken in the same sequence, the figures for `CC1(C)Cc2ccc(Cl)c(F)c2-c2cc(=O)n3c(c2C(=O)N1)CC[C@H]3c1ncc(-c2ccc(N)nc2F)[nH]1` (single isomer, unassigned) [Compound 29, (S*)-12-(5-(6-amino-2-fluoropyridin-3-yl)-1H-imidazol-2-yl)-7-chloro-8-fluoro-3,3-dimethyl-3,4,13,14-tetrahydrobenzo[5,6]azocino[4,3-g]indolizine-1,10(2H,12H)-dione] were 0.0008 µM, 350 nM and 0.0004 µM.
Take `Nc1ccc(-c2cnc(C3CCc4c5c(cc(=O)n43)-c3c(ccc(Cl)c3F)-c3ccncc3NC5=O)[nH]2)c(F)n1` (single isomer, unassigned) [Compound 36, (S*)-3-(5-(6-amino-2-fluoropyridin-3-yl)-1H-imidazol-2-yl)-8-chloro-7-fluoro-2,3-dihydrobenzo[5,6]pyrido[4′,3′:7,8]azocino[4,3-g]indolizine-5,16(1H,15H)-dione]: the Ki on Factor XIa (setting [3]) is approximately 2.87 µM. Besides, the 50% inhibitory concentration (IC50) on Factor XIa (setting [1]) is approximately 5.75 µM; on human plasma kallikrein, more than 10000 nM.
As for `Nc1ccc(-c2cnc(C3CCc4c5c(cc(=O)n43)-c3c(ccc(Cl)c3F)-c3ccncc3NC5=O)[nH]2)c(F)n1` (single isomer, unassigned) [Compound 37, (R*)-3-(5-(6-amino-2-fluoropyridin-3-yl)-1H-imidazol-2-yl)-8-chloro-7-fluoro-2,3-dihydrobenzo[5,6]pyrido[4′,3′:7,8]azocino[4,3-g]indolizine-5,16(1H,15H)-dione], the IC50 was approximately 0.078 µM at Factor XIa (setting [2]) and 3950 nM against human plasma kallikrein. Further, the inhibitory constant (Ki) on Factor XIa was approximately 0.0391 µM.
In the same order, the values of `Nc1ccc(-c2cnc(C3CCc4c5c(cc(=O)n43)-c3c(ccc(Cl)c3F)-c3ccccc3NC5=O)[nH]2)c(F)n1` (single isomer, unassigned) [Compound 38, (R*)-3-(5-(6-amino-2-fluoropyridin-3-yl)-1H-imidazol-2-yl)-8-chloro-7-fluoro-2,3-dihydrodibenzo[5,6:7,8]azocino[4,3-g]indolizine-5,16(1H,15H)-dione] are 0.0372 µM, 1620 nM and 0.0186 µM.
Consider `Nc1ccc(-c2cnc(C3CCc4c5c(cc(=O)n43)-c3c(ccc(Cl)c3F)-c3ccccc3NC5=O)[nH]2)c(F)n1` (single isomer, unassigned) [Compound 39, (S*)-3-(5-(6-amino-2-fluoropyridin-3-yl)-1H-imidazol-2-yl)-8-chloro-7-fluoro-2,3-dihydrodibenzo[5,6:7,8]azocino[4,3-g]indolizine-5,16(1H,15H)-dione], for which the Ki on Factor XIa (setting [3]) is more than 5 µM. In addition, the IC50 is more than 10 µM at Factor XIa (setting [1]) and more than 10000 nM against human plasma kallikrein.
Regarding `Nc1ccc(-c2cnc(C3CCc4c5c(cc(=O)n43)-c3c(ccc(Cl)c3F)CC3(CC3)NC5=O)[nH]2)c(F)n1` (single isomer, unassigned) [Compound 55], the half-inhibitory concentration (IC50) at Factor XIa (setting [2]) is 0.0003 µM; on human plasma kallikrein, 90 nM. Also, the inhibitory constant (Ki) at Factor XIa is 0.0001 µM.
